Data: patent US9714222B2, “Methods and compositions for treating Ewings sarcoma family of tumors” (GEORGETOWN UNIVERSITY, priority 2012, dated 2017)

How the values were obtained:
EWS-FLI1/RHA interaction = biological target: T1, EWS-FLI1/RHA interaction (Homo sapiens, UniProt Q01543+Q01844); test: Immunoblot of co-precipitated protein lysates from treated TC32 cells; format: cell-based; settings: FIG. 4
T1 construct: endogenous in cells; host or cells: TC32 cells
T1 sequence (Q01844+Q01543 with tags, fused parts or gaps): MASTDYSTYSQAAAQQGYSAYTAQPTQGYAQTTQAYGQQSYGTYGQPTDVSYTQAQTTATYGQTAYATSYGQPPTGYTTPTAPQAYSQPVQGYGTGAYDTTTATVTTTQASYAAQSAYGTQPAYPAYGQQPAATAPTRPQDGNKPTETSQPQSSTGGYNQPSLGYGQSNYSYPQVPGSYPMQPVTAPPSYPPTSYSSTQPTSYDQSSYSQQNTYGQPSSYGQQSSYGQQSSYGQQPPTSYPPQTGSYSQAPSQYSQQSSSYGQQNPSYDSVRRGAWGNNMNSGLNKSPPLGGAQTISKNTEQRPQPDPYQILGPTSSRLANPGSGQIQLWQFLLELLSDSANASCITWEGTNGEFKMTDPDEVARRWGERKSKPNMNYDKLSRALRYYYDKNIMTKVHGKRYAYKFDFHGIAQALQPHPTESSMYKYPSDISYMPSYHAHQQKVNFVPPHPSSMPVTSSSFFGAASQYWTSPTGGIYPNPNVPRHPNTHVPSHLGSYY
Text: The disruption of the interaction of RHA with EWS-FLI1 presents an avenue for the development of a class of small molecules as potential therapeutics against the Ewing's family sarcoma tumors.

EWS-FLI1 and ESFT cells = settings: cited from earlier work
[1] = tested on: TC71 (human ESFT cell line); test: IC50 activity in TC71 cells; format: cell-based
Experimental: Compounds provided in Table 2 were prepared using methods similar to those described herein. The structures and IC50 activities of particular compounds in PANC1 (a human pancreatic carcinoma), TC32 (human ESFT cell line), and TC71 (human ESFT cell line) cells are summarized in Table 2.
Growth inhibition of ESFT cells was measured for various concentrations of particular compounds.

## COc1ccc(C(=O)CC2(O)C(=O)Nc3c(Cl)ccc(Cl)c32)cc1 (racemic) [YK-4-279]
EWS-FLI1/RHA interaction; co-precipitation
  disruption of interaction of RHA with EWS-FLI1: did disrupt their interactions
EWS-FLI1/RHA interaction; immunoblot
  effect on level of EWS-FLI1 or RHA: did not directly affect the level of EWS-FLI1 or RHA
EWS-FLI1 and ESFT cells
  caspase-3 activity: increase
  functional inhibition of EWS-FLI1 and ESFT cells: functionally inhibit EWS-FLI1 and ESFT cells

## CN(C)c1ccc(C(=O)CC2(O)C(=O)Nc3c(Cl)ccc(Cl)c32)cc1 (centres unmarked) [PT-1-17]
[1]
  potency compared with YK-4-279: appeared to be more potent
